The target in this experiment is T1, BTK (Homo sapiens, UniProt Q06187).
T1 construct: The GM01501.3 cell line endogenously expresses BTK with a HiBiT fusion tag via CRISPR knock-in at its C-terminal region; endogenous in cells; host or cells: GM01501.3 (GM01501 cells engineered by CRISPR knock-in of HiBiT at the BTK locus)
T1 sequence (Q06187 whole entry, the tested form may be a part): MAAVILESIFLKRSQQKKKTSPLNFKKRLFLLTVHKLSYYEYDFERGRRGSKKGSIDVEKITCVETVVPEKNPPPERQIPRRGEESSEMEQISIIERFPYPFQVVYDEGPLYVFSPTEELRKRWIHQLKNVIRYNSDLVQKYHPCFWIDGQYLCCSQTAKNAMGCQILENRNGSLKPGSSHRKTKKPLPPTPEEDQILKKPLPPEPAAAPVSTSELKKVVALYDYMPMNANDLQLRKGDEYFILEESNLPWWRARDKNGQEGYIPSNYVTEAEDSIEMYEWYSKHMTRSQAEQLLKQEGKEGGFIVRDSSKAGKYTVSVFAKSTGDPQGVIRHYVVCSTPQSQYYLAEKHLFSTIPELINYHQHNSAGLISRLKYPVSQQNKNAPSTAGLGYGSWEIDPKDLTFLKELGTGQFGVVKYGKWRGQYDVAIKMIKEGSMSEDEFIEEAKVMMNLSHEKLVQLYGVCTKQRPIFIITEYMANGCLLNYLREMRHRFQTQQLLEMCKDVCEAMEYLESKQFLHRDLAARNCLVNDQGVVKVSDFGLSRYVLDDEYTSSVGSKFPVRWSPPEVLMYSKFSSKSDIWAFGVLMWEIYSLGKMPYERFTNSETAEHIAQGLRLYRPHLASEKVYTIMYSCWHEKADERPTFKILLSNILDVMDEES
The experiment can be described thus: BTK degradation assay using the HiBiT Method (Nano-Glo HiBiT Lytic Assay, GM01501.3 cells). Format: cell-based. The note with it: HiBiT Degradation on GM01501.3 BTK @ 6 hours. In short, it runs like this: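 CRISPR knock-in GM01501.3 cells expressing endogenous BTK with C-terminal HiBiT tag, treated 6 h at 37 °C with compounds, 11-point half-log titration from 10 μM top, duplicates. Remaining BTK quantified by Nano-Glo HiBiT lytic luminescence versus DMSO controls; DC50 reported.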
A word on the DC50: it is the concentration at which degradation of the target reaches its halfway point. Take `Cc1cc(-c2ncnn3cc(CCCCN4CCC(c5ccc6c(N7CCC(=O)NC7=O)nn(C)c6c5)C(F)(F)C4)cc23)ccc1CNC(=O)c1noc(C(C)(C)C)n1` (centres unmarked) [Example 283, 5-(tert-butyl)-N-(4-(6-(4-(4-(3-(2,4-dioxotetrahydropyrimidin-1(2H)-yl)-1-methyl-1H-indazol-6-yl)-3,3-difluoropiperidin-1-yl)butyl)pyrrolo[2,1-f][1,2,4]triazin-4-yl)-2-methylbenzyl)-1,2,4-oxadiazole-3-carboxamide]: the DC50 is < 100 nM.

Take `Cc1ccc(C(=O)NCc2ccc(-c3ncnn4cc(-c5ccc(CN6CCC(c7ccc(NC8CCC(=O)NC8=O)cc7)CC6)cc5)cc34)cc2C)c(F)c1` (centres unmarked) [Example 95, N-[[4-[6-[4-[[4-[4-[(2,6-dioxo-3-piperidyl)amino]phenyl]-1-piperidyl]methyl]phenyl]pyrrolo[2,1-f][1,2,4]triazin-4-yl]-2-methyl-phenyl]methyl]-2-fluoro-4-methyl-benzamide]: the DC50 was < 100 nM. Compound `Cc1cc(-c2ncnn3cc(CCCCc4ccc(-c5ccc(C6CCC(=O)NC6=O)cc5)cc4)cc23)ccc1CNC(=O)c1noc(C(C)(C)C)n1` (centres unmarked) [Example 151, 5-tert-butyl-N-[[4-[6-[4-[4-[4-(2,6-dioxo-3-piperidyl)phenyl]phenyl]butyl]pyrrolo[2,1-f][1,2,4]triazin-4-yl]-2-methyl-phenyl]methyl]-1,2,4-oxadiazole-3-carboxamide] registered a DC50 of 100 to 500 nM.

`Cc1cc(-c2ncnn3cc(-c4ccc5c(c4)CN(CCc4ccc(NC6CCC(=O)NC6=O)cc4)C5)cc23)ccc1CNC(=O)c1noc(C(C)(C)C)n1` (centres unmarked) [Example 55, 5-tert-butyl-N-[[4-[6-[2-[2-[4-[(2,6-dioxo-3-piperidyl)amino]phenyl]ethyl]isoindolin-5-yl]pyrrolo[2,1-f][1,2,4]triazin-4-yl]-2-methyl-phenyl]methyl]-1,2,4-oxadiazole-3-carboxamide]: the DC50 is < 100 nM. As for `Cc1cc(-c2ncnn3cc(CCN4CCC(c5ncc(NC6CCC(=O)NC6=O)cc5F)CC4)cc23)ccc1CNC(=O)c1noc(C(C)(C)C)n1` (centres unmarked) [Example 251, 5-(tert-butyl)-N-(4-(6-(2-(4-(5-((2,6-dioxopiperidin-3-yl)amino)-3-fluoropyridin-2-yl)piperidin-1-yl)ethyl)pyrrolo[2,1-f][1,2,4]triazin-4-yl)-2-methylbenzyl)-1,2,4-oxadiazole-3-carboxamide], the DC50 is < 100 nM.

`Cc1cc(-c2ncnn3cc(-c4ccc(CN(C)CC(F)(F)Cc5ccc(NC6CCC(=O)NC6=O)cc5)cc4)cc23)ccc1CNC(=O)c1noc(C(C)(C)C)n1` (centres unmarked) [Example 150, 5-tert-butyl-N-[[4-[6-[4-[[[3-[4-[(2,6-dioxo-3-piperidyl)amino]phenyl]-2,2-difluoro-propyl]-methyl-amino]methyl]phenyl]pyrrolo[2,1-f][1,2,4]triazin-4-yl]-2-methyl-phenyl]methyl]-1,2,4-oxadiazole-3-carboxamide]: the 50% degradation concentration (DC50) fell in the range of 100 to 500 nM.

In the case of `Cc1cc(-c2ncnn3cc(CCCCN4CCC(c5ccc(N6CCC(=O)NC6=O)cc5)CC4)cc23)ccc1CNC(=O)c1noc(C(C)(C)C)n1` [Example 129, 5-tert-butyl-N-[[4-[6-[4-[4-[4-(2,4-dioxohexahydropyrimidin-1-yl)phenyl]-1-piperidyl]butyl]pyrrolo[2,1-f][1,2,4]triazin-4-yl]-2-methyl-phenyl]methyl]-1,2,4-oxadiazole-3-carboxamide], the DC50 is < 100 nM. For `Cc1cc(-c2ncnn3cc(-c4ccc(CN5CCC(c6ccc(NC7CCC(=O)NC7=O)cc6)CC5)c(F)c4)cc23)ccc1CNC(=O)c1noc(C(C)(C)C)n1` (centres unmarked) [Example 23, 5-tert-butyl-N-[[4-[6-[4-[[4-[4-[(2,6-dioxo-3-piperidyl)amino]phenyl]-1-piperidyl]methyl]-3-fluoro-phenyl]pyrrolo[2,1-f][1,2,4]triazin-4-yl]-2-methyl-phenyl]methyl]-1,2,4-oxadiazole-3-carboxamide] the value was < 100 nM. For `Cc1cc(-c2ncnn3cc(-c4ccc5c(c4)CN(CCc4ccc(NC6CCC(=O)NC6=O)cc4)CC5)cc23)ccc1CNC(=O)c1noc(C(C)(C)C)n1` (centres unmarked) [Example 60, 5-tert-butyl-N-[[4-[6-[2-[2-[4-[(2,6-dioxo-3-piperidyl)amino]phenyl]ethyl]-3,4-dihydro-1H-isoquinolin-7-yl]pyrrolo[2,1-f] [1,2,4]triazin-4-yl]-2-imethyl-phenyl]methyl]-1,2,4-oxadiazole-3-carboxamide], the DC50 was < 100 nM. `O=C1CCC(Nc2ccc(C3CCN(Cc4ccc(-c5cc6c(-c7ccc(CNC(=O)c8ccc(C(F)F)cc8)c(F)c7)ncnn6c5)cc4)CC3)nc2)C(=O)N1` (centres unmarked) [Example 102, 4-(difluoromethyl)-N-[[4-[6-[4-[[4-[5-[(2,6-dioxo-3-piperidyl)amino]-2-pyridyl]-1-piperidyl]methyl]phenyl]pyrrolo[2,1-f][1,2,4]triazin-4-yl]-2-fluoro-phenyl]methyl]benzamide]: the DC50 is < 100 nM.

Take `Cc1cc(-c2ncnn3cc(-c4ccc5c(c4)CN(CCCc4ccc(NC6CCC(=O)NC6=O)cc4)CC5)cc23)ccc1CNC(=O)c1noc(C(C)(C)C)n1` (centres unmarked) [Example 59, 5-tert-butyl-N-[[4-[6-[2-[3-[4-[(2,6-dioxo-3-piperidyl)amino]phenyl]propyl]-3,4-dihydro-1H-isoquinolin-7-yl]pyrrolo[2,1-f][1,2,4]triazin-4-yl]-2-methyl-phenyl]methyl]-1,2,4-oxadiazole-3-carboxamide]: the DC50 is < 100 nM. As to `Cc1cc(-c2ccnc3sc(CCCCN4CCC(c5ccc(NC6CCC(=O)NC6=O)cc5)CC4)cc23)ccc1CNC(=O)c1noc(C(C)(C)C)n1` (centres unmarked) [Example 158, 5-tert-butyl-N-[[4-[2-[4-[4-[4-[(2,6-dioxo-3-piperidyl)amino]phenyl]-1-piperidyl]butyl]thieno[2,3-b]pyridin-4-yl]-2-methyl-phenyl]methyl]-1,2,4-oxadiazole-3-carboxamide], the DC50 lay in the range of 100 to 500 nM. Next, `Cc1cc(-c2ncnn3cc(N4CCN(C(=O)C5CCN(C(=O)c6ccc(OC7CCC(=O)NC7=O)cc6)C5)CC4)cc23)ccc1CNC(=O)c1noc(C(C)(C)C)n1` (centres unmarked) [Example 172, 5-(tert-butyl)-N-(4-(6-(4-(1-(4-((2,6-dioxopiperidin-3-yl)oxy)benzoyl)pyrrolidine-3-carbonyl)piperazin-1-yl)pyrrolo[2,1-f][1,2,4]triazin-4-yl)-2-methylbenzyl)-1,2,4-oxadiazole-3-carboxamide]: 100 to 500 nM.

On to `Cc1cc(-c2ncnn3cc(-c4ccc(CN5CCC(c6ccc(N[C@@H]7CCC(=O)NC7=O)cc6F)CC5)cc4)cc23)ccc1CNC(=O)c1noc(C(C)(C)C)n1` [Example 26, (R)-5-(tert-butyl)-N-(4-(6-(4-((4-(4-((2,6-dioxopiperidin-3-yl)amino)-2-fluorophenyl)piperidin-1-yl)methyl)phenyl)pyrrolo[2,1-f] [1,2,4]triazin-4-yl)-2-methylbenzyl)-1,2,4-oxadiazole-3-carboxamide], for which the DC50 is < 100 nM. For `Cc1cc(-c2ncnn3cc(CCN4CCC(c5ccc(OC6CCC(=O)NC6=O)cc5)CC4)cc23)ccc1CNC(=O)c1noc(C(C)(C)C)n1` (centres unmarked) [Example 118, 5-tert-butyl-N-[[4-[6-[2-[4-[4-[(2,6-dioxo-3-piperidyl)oxy]phenyl]-1-piperidyl]ethyl]pyrrolo[2,1-f][1,2,4]triazin-4-yl]-2-methyl-phenyl]methyl]-1,2,4-oxadiazole-3-carboxamide] the value was < 100 nM. Next, `Cc1cc(-c2ncnn3cc(CCN4CCC(c5ccc(C6CCC(=O)NC6=O)cc5)C(F)(F)C4)cc23)ccc1CNC(=O)c1noc(C(C)(C)C)n1` (centres unmarked) [Example 119, 5-tert-butyl-N-[[4-[6-[2-[4-[4-(2,6-dioxo-3-piperidyl)phenyl]-3,3-difluoro-1-piperidyl]ethyl]pyrrolo[2,1-f][1,2,4]triazin-4-yl]-2-methyl-phenyl]methyl]-1,2,4-oxadiazole-3-carboxamide]: < 100 nM; `CC(C)(C)c1nc(C(=O)NCc2ccc(-c3ncnn4cc(-c5ccc(CN6CCN(Cc7ccc(OC8CCC(=O)NC8=O)cc7)CC6)cn5)cc34)cc2F)no1` (centres unmarked) [Example 234, 5-(tert-butyl)-N-(4-(6-(5-((4-(4-((2,6-dioxopiperidin-3-yl)oxy)benzyl)piperazin-1-yl)methyl)pyridin-2-yl)pyrrolo[2,1-f][1,2,4]triazin-4-yl)-2-fluorobenzyl)-1,2,4-oxadiazole-3-carboxamide]: < 100 nM. Next, `Cc1cc(-c2ncnn3cc(-c4ccc(CN5CCC(c6ccc(NC7CCC(=O)NC7=O)cc6)CC5)cc4)cc23)ccc1CNC(=O)c1cccnc1` (centres unmarked) [Example 90, N-[[4-[6-[4-[[4-[4-[(2,6-dioxo-3-piperidyl)amino]phenyl]-1-piperidyl]methyl]phenyl]pyrrolo[2,1-f][1,2,4]triazin-4-yl]-2-methyl-phenyl]methyl]pyridine-3-carboxamide]: < 100 nM; `Cc1cc(-c2ncnn3cc(CCN4CCC(c5ccc6c(N7CCC(=O)NC7=O)cnn6c5)CC4)cc23)ccc1CNC(=O)c1noc(C(C)(C)C)n1` [Example 270, 5-(tert-butyl)-N-(4-(6-(2-(4-(3-(2,4-dioxotetrahydropyrimidin-1(2H)-yl)pyrazolo[1,5-a]pyridin-6-yl)piperidin-1-yl)ethyl)pyrrolo[2,1-f][1,2,4]triazin-4-yl)-2-methylbenzyl)-1,2,4-oxadiazole-3-carboxamide]: < 100 nM; `Cc1cc(-c2ncnn3cc(-c4ccc(OCCCCCCCCN5CCC(c6ccc(NC7CCC(=O)NC7=O)cc6)CC5)cc4)cc23)ccc1CNC(=O)c1noc(C(C)(C)C)n1` (centres unmarked) [Example 115, -tert-butyl-N-[[4-[6-[4-[8-[4-[4-[(2,6-dioxo-3-piperidyl)amino]phenyl]-1-piperidyl]octoxy]phenyl]pyrrolo[2,1-f][1,2,4]triazin-4-yl]-2-methyl-phenyl]methyl]-1,2,4-oxadiazole-3-carboxamide]: < 100 nM.
